Assay results from patent US20260315609A1, “MIXED VASOPRESSIN RECEPTOR AGONIST-ANTAGONIST FOR TREATING END-STAGE LIVER DISEASE AND COMPLICATIONS ASSOCIATED THEREOF” (FERRING B.V., priority 2022, published 2026).
Starred links: 1 amine or outer side, 2 acyl side, 3 side chain; linkers in the order of their positions; H or OH if unused. Positions of bridges follow the written chain, without caps; N, C: chain ends. Non-standard residues stand in square brackets, D forms with d. Residues, ends and D or L forms follow the SMILES beside them. Chains are numbered I, II in the order given. *: point of attachment. isoGln = NC(=O)[C@H](CCC(=O)[*:2])N[*:1]; εLys = N[C@@H](CCCCN[*:1])C(=O)[*:2]; Dab = NCC[C@H](N)C(=O)O; PhAc = O=C(Cc1ccccc1)*

Key:
[1] = PK of Compound 1, once daily subcutaneous (bolus) injection for 5 days in healthy men and women (Period 2); assay type: in vivo, human
Description: In some instances, endpoints of the study were: vital signs (e.g., supine blood pressure, pulse, and body temperature), electrocardiogram (ECG) (e.g., intervals, rhythm, and morphology), cardiac function (e.g., cardiac output using echocardiography), peripheral blood flow/tissue perfusion (e.g., by skin color), venous blood gases (e.g., lactate), urinary output, clinical chemistry, hematology, hemostasis, and urinalysis, adverse events (AEs) (e.g., type, frequency, and intensity), pharmacokinetics (e.g., AUC, AUCt, AUCτ, % Extrap AUC, Cmax, tmax, CL, Vz, t1/2, MRT, Vss, F, Ae, and CLR), and metabolite pattern in plasma and urine.

[2] = biological target: T1, rV1b receptor (Rattus norvegicus, UniProt P48974); test: Luciferase reporter gene assay, rat V1b; details: read-out: % MPE
T1 sequence (P48974 1-425): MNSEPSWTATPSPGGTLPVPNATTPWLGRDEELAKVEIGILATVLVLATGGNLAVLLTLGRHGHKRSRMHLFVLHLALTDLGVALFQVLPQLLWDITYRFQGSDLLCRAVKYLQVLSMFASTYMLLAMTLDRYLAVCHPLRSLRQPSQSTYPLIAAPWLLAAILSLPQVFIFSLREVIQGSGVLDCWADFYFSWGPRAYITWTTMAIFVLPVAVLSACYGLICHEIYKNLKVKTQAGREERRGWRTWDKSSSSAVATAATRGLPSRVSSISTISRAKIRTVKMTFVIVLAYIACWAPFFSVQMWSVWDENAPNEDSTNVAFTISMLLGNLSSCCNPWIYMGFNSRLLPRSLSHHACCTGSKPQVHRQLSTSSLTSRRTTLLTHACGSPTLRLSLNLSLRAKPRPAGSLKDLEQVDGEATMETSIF
Procedure: Cell Lines. Studies were conducted with cell lines expressing rat (r) or human (h) Via, V1b, V2, or OT receptors. For the experiments with human receptors, human embryonic kidney (HEK)-flp-in cells stably expressing the lacZ-Zeocin™ fusion gene were used for expression of hV1a and hV1b. These cells were designed for use with the Flp-In™ expression vector containing the gene of interest (here hV1a or hV1b) and the Flp recombinase expression plasmid, pOG44. For hV2 and hOTR, HEK-293 cells transiently expressing hV2 were used.
Cell Maintenance. […]
Functional Cell-Based Assays. To detect activity generated by binding of the test compounds to endogenous rV1a receptors or the stably expressed hV1a receptors, Fluorometric Imaging Plate Reader (FL1PR) calcium assays were performed. Briefly, real-time fluorescence of an intracellular calcium-sensitive dye was measured immediately upon addition of the test compound at various concentrations. […] Expression of the luciferase gene was determined after 5-h incubation with various concentrations of test compound. […] For V1a receptor response, area under the curve of the real-time calcium traces, expressed as relative fluorescence units, was determined. […]

[3] = M1 formation, single dose subcutaneous infusion in rats; assay type: in vivo, rat; details: s.c. infusion
Description: The incision for the mini-pump was on the cranial right side of the spine, a trocar or hemostats may be inserted to create a subcutaneous pocket, and the pump inserted into the subcutaneous pocket with the delivery port of the mini-pump pointing cranially. The doses were given into mid-dorsal area via surgical implantation of the pump filled with test article. Following insertion of the implant, a 4 cm×4 cm area surrounding the pump will be delineated and designated as the test site. The test site will be delineated and remarked as necessary thereafter.
Blood samples were collected from each rat at various timepoints, including 0.25 hour (hr), 1 hr, 3 hr, 7 hr, 24 hr, 25 hr, 27 hr, and 29 hr.

[4] = tested on: methionine/choline-deficient (MCD) diet rats; test: MAP / ΔMAP in methionine/choline-deficient (MCD) diet rats; assay type: in vivo, rat; details: for Δ MAP (mean): SC, MCD diet rats
Procedure: The terlipressin dose was 100 μg/kg.
Data were evaluated as change […] from baseline.

[5] = s.c. 0.1 mg, 1st administration
[6] = s.c. 0.1 mg, 5th administration
[7] = s.c. 0.3 mg, 1st administration
[8] = s.c. 0.3 mg, 5th administration

CC[C@H](C)[C@@H]1NC(=O)[C@H](Cc2ccccc2)NC(=O)[C@@H](N)CSSC[C@@H](C(=O)N2CCC[C@H]2C(=O)N[C@@H](CCNC(=O)[C@@H](N)CCCCNC(=O)[C@H](CCCCNC(C)=O)NC(=O)CC[C@H](NC(=O)[C@H](CCCNC(=N)N)NC(=O)[C@@H]2CCCN2C(=O)[C@H](C)NC(=O)[C@H](CC(N)=O)NC(=O)[C@H](CCC(N)=O)NC(=O)[C@H](Cc2ccccc2)NC(=O)[C@@H](Cc2ccc(OC)cc2)NC(=O)Cc2ccccc2)C(N)=O)C(=O)NCC(N)=O)NC(=O)[C@H](CC(N)=O)NC(=O)[C@H](CCC(N)=O)NC1=O [Compound 1, Glycinamide, L-cysteinyl-L-phenylalanyl-L-isoleucyl-L-glutaminyl-L-asparaginyl-L-cysteinyl-L-prolyl-N4-(phenylacetyl-O-methyl-D-tyrosyl-L-phenylalanyl-L-glutaminyl-L-asparaginyl-L-alanyl-L-prolyl-L-arginyl-L-isoglutamyl-N5-acetyl-L-lysyl-L-ε-lysyl)-L-2,4-diaminobutyryl-, cyclic (1→6)-disulfide] (I: H-CFIQNCP[Dab]G-NH2 / II: PhAc-[dY](Me)FQNAPR[isoGln]K(Ac)[εLys]; disulfide I:1-I:6; amide I:8-II:C)
bioavailability ([1]; repeated s.c. injections, versus i.v.): about 18% | terminal half-life (summary) ([1]; s.c.): about 1 hours | tmax (summary) ([1]; s.c.): about 0.3 hours | AUC, geometric mean [1, 5]: 0.87 (22) h*ng/mL | AUC, mean [1, 5]: 0.88 (0.19) h*ng/mL | Cmax, geometric mean [1, 5]: 0.43 (41) ng/mL | Cmax, mean [1, 5]: 0.46 (0.17) ng/mL | tmax, mean [1, 5]: 0.3 (0.1) h | AUC, geometric mean [1, 6]: 0.70 (3) h*ng/mL | AUC, mean [1, 6]: 0.70 (0.02) h*ng/mL | Cmax, geometric mean [1, 6]: 0.42 (28) ng/mL | Cmax, mean [1, 6]: 0.43 (0.14) ng/mL | tmax, mean [1, 6]: 0.3 (0.1) h | AUC, geometric mean [1, 7]: 6.40 (109) h*ng/mL | AUC, mean [1, 7]: 7.90 (5.01) h*ng/mL | Cmax, geometric mean [1, 7]: 2.45 (98) ng/mL | Cmax, mean [1, 7]: 2.99 (2.03) ng/mL | t1/2, mean [1, 7]: 1.6 (0.7) h | tmax, mean [1, 7]: 0.4 (0.5) h | AUC, geometric mean [1, 8]: 2.77 (113) h*ng/mL | AUC, mean [1, 8]: 3.36 (2.69) h*ng/mL | Cmax, geometric mean [1, 8]: 1.42 (58) ng/mL | Cmax, mean [1, 8]: 1.52 (0.79) ng/mL | tmax, mean [1, 8]: 0.4 (0.2) h | tmax, median [1, 8]: 24 min | median tmax ([1]; s.c. 0.1 and 0.3 mg, 1st and 5th administrations): 18 to 24 min | Emax [2]: 97% | metabolised ([3]; rat, plasma, sc, 4.8 mg/kg, rats): < 20% | adverse events ([3]; rats and mini-pigs): No relevant adverse events were reported | Δ MAP (mean) ([4]; 25 μg/kg, 0 min): 0.0 mmHg | Δ MAP (mean) ([4]; 25 μg/kg, 1 min): 1.1 mmHg | Δ MAP (mean) ([4]; 25 μg/kg, 2 min): 1.9 mmHg | Δ MAP (mean) ([4]; 25 μg/kg, 3 min): 2.6 mmHg | Δ MAP (mean) ([4]; 25 μg/kg, 5 min): 3.5 mmHg | Δ MAP (mean) ([4]; 25 μg/kg, 7 min): 4.0 mmHg | Δ MAP (mean) ([4]; 25 μg/kg, 10 min): 4.8 mmHg | Δ MAP (mean) ([4]; 25 μg/kg, 15 min): 5.3 mmHg | Δ MAP (mean) ([4]; 25 μg/kg, 20 min): 5.2 mmHg | Δ MAP (mean) ([4]; 25 μg/kg, 30 min): 4.4 mmHg | Δ MAP (mean) ([4]; 25 μg/kg, 60 min): 3.0 mmHg | Δ MAP (mean) ([4]; 25 μg/kg, 90 min): 3.1 mmHg | Δ MAP (mean) ([4]; 100 μg/kg, 0 min): 0.0 mmHg | Δ MAP (mean) ([4]; 100 μg/kg, 1 min): 2.0 mmHg | Δ MAP (mean) ([4]; 100 μg/kg, 2 min): 3.5 mmHg | Δ MAP (mean) ([4]; 100 μg/kg, 3 min): 4.4 mmHg | Δ MAP (mean) ([4]; 100 μg/kg, 5 min): 7.0 mmHg | Δ MAP (mean) ([4]; 100 μg/kg, 7 min): 8.5 mmHg | Δ MAP (mean) ([4]; 100 μg/kg, 10 min): 9.9 mmHg | Δ MAP (mean) ([4]; 100 μg/kg, 15 min): 11.0 mmHg | Δ MAP (mean) ([4]; 100 μg/kg, 20 min): 11.3 mmHg | Δ MAP (mean) ([4]; 100 μg/kg, 30 min): 10.6 mmHg | Δ MAP (mean) ([4]; 100 μg/kg, 60 min): 10.9 mmHg | Δ MAP (mean) ([4]; 100 μg/kg, 90 min): 9.2 mmHg | Δ MAP (mean) ([4]; 500 μg/kg, 0 min): 0.0 mmHg | Δ MAP (mean) ([4]; 500 μg/kg, 1 min): 2.2 mmHg | Δ MAP (mean) ([4]; 500 μg/kg, 2 min): 4.5 mmHg | Δ MAP (mean) ([4]; 500 μg/kg, 3 min): 6.4 mmHg | Δ MAP (mean) ([4]; 500 μg/kg, 5 min): 9.1 mmHg | Δ MAP (mean) ([4]; 500 μg/kg, 7 min): 12.1 mmHg | Δ MAP (mean) ([4]; 500 μg/kg, 10 min): 14.7 mmHg | Δ MAP (mean) ([4]; 500 μg/kg, 15 min): 13.6 mmHg | Δ MAP (mean) ([4]; 500 μg/kg, 20 min): 13.7 mmHg | Δ MAP (mean) ([4]; 500 μg/kg, 30 min): 11.4 mmHg | Δ MAP (mean) ([4]; 500 μg/kg, 60 min): 9.1 mmHg | Δ MAP (mean) ([4]; 500 μg/kg, 90 min): 10.2 mmHg | highest observed absolute MAP ([4]; SC 25 μg/kg): 79.2±1.4 mmHg | highest observed absolute MAP ([4]; SC 100 μg/kg): 86.8±2.5 mmHg | highest observed absolute MAP ([4]; SC 500 μg/kg): 90.4±3.7 mmHg | maximum ΔMAP ([4]; SC 25 g/kg (so in the source)): 5.3±1.1 mmHg
